# According to the NIST ThermoML archive (doi:10.1016/j.fluid.2006.03.015):
# ± gives the expanded uncertainty stated by the source.
# Assay: molar heat capacity at constant pressure
# Details: 101.33 kPa, Liquid
# [1] = 320.15 K, Small sample (50 mg) DSC
# [2] = 325.15 K, Small sample (50 mg) DSC
# [3] = 330.15 K, Small sample (50 mg) DSC
# [4] = 335.15 K, Small sample (50 mg) DSC
# [5] = 340.15 K, Small sample (50 mg) DSC
# [6] = 345.15 K, Small sample (50 mg) DSC
# [7] = 350.15 K, Small sample (50 mg) DSC
# [8] = 355.15 K, Small sample (50 mg) DSC
# [9] = 360.15 K, Small sample (50 mg) DSC
# [10] = 365.15 K, Small sample (50 mg) DSC
# [11] = 370.15 K, Small sample (50 mg) DSC
structure (smiles),measurement,setting,value
O [water],molar heat capacity at constant pressure,"305.15 K, Small sample (50 mg) DSC",74.95 ± 3.9 J/K/mol
same,molar heat capacity at constant pressure,"310.15 K, Small sample (50 mg) DSC",74.96 ± 3.9 J/K/mol
same,molar heat capacity at constant pressure,"315.15 K, Small sample (50 mg) DSC",74.9 ± 3.9 J/K/mol
same,molar heat capacity at constant pressure,[1],74.93 ± 3.9 J/K/mol
same,molar heat capacity at constant pressure,[2],75.01 ± 3.9 J/K/mol
same,molar heat capacity at constant pressure,[3],75.09 ± 3.9 J/K/mol
same,molar heat capacity at constant pressure,[4],75.11 ± 3.9 J/K/mol
same,molar heat capacity at constant pressure,[5],75.23 ± 3.9 J/K/mol
same,molar heat capacity at constant pressure,[6],75.31 ± 3.9 J/K/mol
same,molar heat capacity at constant pressure,[7],75.43 ± 3.9 J/K/mol
same,molar heat capacity at constant pressure,[8],75.53 ± 3.9 J/K/mol
same,molar heat capacity at constant pressure,[9],75.59 ± 3.9 J/K/mol
same,molar heat capacity at constant pressure,[10],75.72 ± 3.9 J/K/mol
same,molar heat capacity at constant pressure,[11],75.8 ± 3.9 J/K/mol
CCCCCC[n+]1ccn(C)c1.O=S(=O)([N-]S(=O)(=O)C(F)(F)F)C(F)(F)F,molar heat capacity at constant pressure,"318.17 K, Large sample (1 g) DSC",668 ± 35 J/K/mol
same,molar heat capacity at constant pressure,[1],672 ± 35 J/K/mol
same,molar heat capacity at constant pressure,"323.13 K, Large sample (1 g) DSC",672 ± 35 J/K/mol
same,molar heat capacity at constant pressure,"323.15 K, modulated-temperature differential scanning calorimetry MDSC",680 ± 34 J/K/mol
same,molar heat capacity at constant pressure,[2],675 ± 35 J/K/mol
same,molar heat capacity at constant pressure,"328.14 K, Large sample (1 g) DSC",673 ± 35 J/K/mol
same,molar heat capacity at constant pressure,"328.15 K, modulated-temperature differential scanning calorimetry MDSC",682 ± 34 J/K/mol
same,molar heat capacity at constant pressure,[3],679 ± 35 J/K/mol
same,molar heat capacity at constant pressure,"333.15 K, modulated-temperature differential scanning calorimetry MDSC",685 ± 34 J/K/mol
same,molar heat capacity at constant pressure,"333.16 K, Large sample (1 g) DSC",673 ± 35 J/K/mol
same,molar heat capacity at constant pressure,[4],681 ± 35 J/K/mol
same,molar heat capacity at constant pressure,"338.15 K, modulated-temperature differential scanning calorimetry MDSC",688 ± 34 J/K/mol
same,molar heat capacity at constant pressure,"338.16 K, Large sample (1 g) DSC",675 ± 35 J/K/mol
same,molar heat capacity at constant pressure,[5],684 ± 36 J/K/mol
same,molar heat capacity at constant pressure,"343.15 K, modulated-temperature differential scanning calorimetry MDSC",689 ± 34 J/K/mol
same,molar heat capacity at constant pressure,"343.17 K, Large sample (1 g) DSC",676 ± 35 J/K/mol
same,molar heat capacity at constant pressure,[6],686 ± 36 J/K/mol
same,molar heat capacity at constant pressure,"348.15 K, modulated-temperature differential scanning calorimetry MDSC",693 ± 35 J/K/mol
same,molar heat capacity at constant pressure,"348.18 K, Large sample (1 g) DSC",677 ± 35 J/K/mol
same,molar heat capacity at constant pressure,[7],688 ± 36 J/K/mol
same,molar heat capacity at constant pressure,"353.13 K, Large sample (1 g) DSC",680 ± 35 J/K/mol
same,molar heat capacity at constant pressure,"353.15 K, modulated-temperature differential scanning calorimetry MDSC",695 ± 35 J/K/mol
same,molar heat capacity at constant pressure,[8],691 ± 36 J/K/mol
same,molar heat capacity at constant pressure,"358.12 K, Large sample (1 g) DSC",682 ± 35 J/K/mol
same,molar heat capacity at constant pressure,"358.15 K, modulated-temperature differential scanning calorimetry MDSC",698 ± 35 J/K/mol
same,molar heat capacity at constant pressure,[9],693 ± 36 J/K/mol
same,molar heat capacity at constant pressure,"363.15 K, modulated-temperature differential scanning calorimetry MDSC",701 ± 35 J/K/mol
same,molar heat capacity at constant pressure,"363.16 K, Large sample (1 g) DSC",686 ± 36 J/K/mol
same,molar heat capacity at constant pressure,[10],696 ± 36 J/K/mol
same,molar heat capacity at constant pressure,"368.15 K, modulated-temperature differential scanning calorimetry MDSC",705 ± 35 J/K/mol
same,molar heat capacity at constant pressure,"368.18 K, Large sample (1 g) DSC",689 ± 36 J/K/mol
same,molar heat capacity at constant pressure,[11],700 ± 36 J/K/mol
same,molar heat capacity at constant pressure,"373.13 K, Large sample (1 g) DSC",691 ± 36 J/K/mol
same,molar heat capacity at constant pressure,"373.15 K, modulated-temperature differential scanning calorimetry MDSC",706 ± 35 J/K/mol
same,molar heat capacity at constant pressure,"375.15 K, Small sample (50 mg) DSC",703 ± 37 J/K/mol
same,molar heat capacity at constant pressure,"378.13 K, Large sample (1 g) DSC",694 ± 36 J/K/mol
same,molar heat capacity at constant pressure,"378.15 K, modulated-temperature differential scanning calorimetry MDSC",709 ± 35 J/K/mol
same,molar heat capacity at constant pressure,"380.15 K, Small sample (50 mg) DSC",706 ± 37 J/K/mol
same,molar heat capacity at constant pressure,"383.15 K, modulated-temperature differential scanning calorimetry MDSC",711 ± 36 J/K/mol
same,molar heat capacity at constant pressure,"383.17 K, Large sample (1 g) DSC",697 ± 36 J/K/mol
same,molar heat capacity at constant pressure,"385.15 K, Small sample (50 mg) DSC",709 ± 37 J/K/mol
same,molar heat capacity at constant pressure,"388.15 K, modulated-temperature differential scanning calorimetry MDSC",714 ± 36 J/K/mol
same,molar heat capacity at constant pressure,"388.16 K, Large sample (1 g) DSC",698 ± 36 J/K/mol
same,molar heat capacity at constant pressure,"390.15 K, Small sample (50 mg) DSC",713 ± 37 J/K/mol
same,molar heat capacity at constant pressure,"393.14 K, Large sample (1 g) DSC",703 ± 37 J/K/mol
same,molar heat capacity at constant pressure,"393.15 K, modulated-temperature differential scanning calorimetry MDSC",716 ± 36 J/K/mol
same,molar heat capacity at constant pressure,"395.15 K, Small sample (50 mg) DSC",716 ± 37 J/K/mol
same,molar heat capacity at constant pressure,"398.15 K, modulated-temperature differential scanning calorimetry MDSC",718 ± 36 J/K/mol
same,molar heat capacity at constant pressure,"398.18 K, Large sample (1 g) DSC",706 ± 37 J/K/mol
same,molar heat capacity at constant pressure,"400.15 K, Small sample (50 mg) DSC",720 ± 37 J/K/mol
same,molar heat capacity at constant pressure,"403.15 K, modulated-temperature differential scanning calorimetry MDSC",720 ± 36 J/K/mol
same,molar heat capacity at constant pressure,"403.16 K, Large sample (1 g) DSC",709 ± 37 J/K/mol
same,molar heat capacity at constant pressure,"405.15 K, Small sample (50 mg) DSC",725 ± 38 J/K/mol
same,molar heat capacity at constant pressure,"408.13 K, Large sample (1 g) DSC",712 ± 37 J/K/mol
same,molar heat capacity at constant pressure,"408.15 K, modulated-temperature differential scanning calorimetry MDSC",723 ± 36 J/K/mol
same,molar heat capacity at constant pressure,"410.15 K, Small sample (50 mg) DSC",728 ± 38 J/K/mol
same,molar heat capacity at constant pressure,"413.15 K, modulated-temperature differential scanning calorimetry MDSC",723 ± 36 J/K/mol
same,molar heat capacity at constant pressure,"413.16 K, Large sample (1 g) DSC",716 ± 37 J/K/mol
same,molar heat capacity at constant pressure,"415.15 K, Small sample (50 mg) DSC",732 ± 38 J/K/mol
same,molar heat capacity at constant pressure,"418.13 K, Large sample (1 g) DSC",719 ± 37 J/K/mol
same,molar heat capacity at constant pressure,"420.15 K, Small sample (50 mg) DSC",736 ± 38 J/K/mol
same,molar heat capacity at constant pressure,"425.15 K, Small sample (50 mg) DSC",739 ± 38 J/K/mol
